Residues, ends and D or L forms follow the SMILES beside them.
Structure (SMILES) | melting point [°C]
CCC(Cl)Cc1sc(O)nc1C (stereo not given) | 84 to 85
C=C1c2c(ccc(OC(C)=O)c2OC(C)=O)C(=O)N2CCCCC12 (stereo not given) | 129 to 132
CN(C)c1nc(N(C)C)nc(N(C)Cc2ccccc2O)n1 | 169 to 171
ClC1(c2ccccc2)c2ccccc2-c2ncncc21 (stereo not given) | 119 to 120
CC1CCC(C(C)C)C(C(=O)NC(C)(C)CO)C1 (stereo not given) | 123
CCn1c(C)c(C(=O)c2ccccc2C(=O)O)c2ccccc21 | 184 to 185
COc1cccc([N+](=O)[O-])c1N | 67 to 68
CC(C)C1C(=O)N(Cc2ccccc2)S(=O)(=O)N1C (stereo not given) | 52.5 to 54
CC(=O)N=c1sc(C)cn1CC(O)c1cccs1 (stereo not given) | 106 to 107
COC(=O)C1OC(c2ccccc2)OCC1(C)C (stereo not given) | 86.5 to 88
CCCCOCC(CO)OCn1cnc2c(O)nc(N)nc21 (stereo not given) | 208 to 211
O=C(CCc1ccccc1)CN1C(=O)CC1S(=O)CCO (stereo not given) | 64 to 65
COC(=O)c1cc(C(C)=O)c(O)cc1O | 124 to 126
CSc1cc(C)nc(SC)c1NC(=O)CCl | 190 to 192
CCOC(=O)c1nc2cc(NC(=O)OC(C)(C)C)ccn2n1 | 220 to 222
NP(N)(=O)NC(=O)c1ccc(F)cc1 | 255 to 257
C[C@H](N)C(=O)N1CCC[C@H]1C(=O)O (H-Ala-Pro-OH) | 106 to 132
Cc1cc(=O)c2c([nH]1)CCOC2 | > 285
Cc1cccc(N=C2NCCN2)c1C | 141 to 144
Cc1cccc(C)c1NC(=O)CCS(=O)c1cc(C(C)(C)C)c(O)c(C(C)(C)C)c1 (stereo not given) | 162 to 164
CN1C=C2c3ccccc3Cc3ccccc3C2C1 (stereo not given) | 128 to 131
CC(C)(C)NC(=O)[C@@H]1C[C@H](N2CCOCC2)CN1C(=O)OC(C)(C)C | 172 to 173
COc1cc(C(C)C)c(Oc2cnc(N)nc2N)cc1-c1ncon1 | 135 to 138

Structure (SMILES) | melting point [°C]
OCC1OC(n2cnc3c(Cl)ncc(F)c32)C(O)C1O (stereo not given) | 187 to 189
O=C(Nc1ccc2ccc(N3CCCC3)nc2n1)c1ccccc1 | 130
CS(=O)(=O)Nc1ccc2[nH]c(=O)n(CCCCN3CC=C(c4ccccc4)CC3)c(=O)c2c1 | 193 to 195
O=C(O)CP(=O)(O)CCCc1ccccc1 | 118 to 119
Nc1nc(OCc2ccccc2)c2ncn(CCC3COP(=O)(OCc4ccccc4)OC3)c2n1 (stereo not given) | 162 to 166
COc1ccc2c(c1)CCC1C2CCC2(C)C(NCCCCCCCCN)CCC12 (stereo not given) | 47.5 to 49
Nc1nc(NC2CCCC2)c2ncn(C3C=CC(CO)C3)c2n1 (stereo not given) | 143 to 146
CCN1CCC2(c3cccc(O)c3)CC(Cc3ccccc3)=CCC2C1 (stereo not given) | 160 to 162
COCOc1ccc(CCc2c(CC(N)=O)cc(OC)c(OC)c2OC)cc1OCc1ccccc1 | 73 to 74
CN(CCNC(=NCCCOc1cccc(CN2CCCCC2)c1)NC#N)CCN(Cc1ccc(F)cc1)c1ccccn1 | 106
COC(=O)c1cc(OC)nc(C)n1 | 90 to 93
O=C1NCN(c2ccccc2)C12CCN(CC1=Cc3ccccc3CC1)CC2 | 205 to 206
CC(C)(C)c1cc(CSCN(O)CSCc2cc(C(C)(C)C)c(O)c(C(C)(C)C)c2)cc(C(C)(C)C)c1O | 98 to 101
N#Cc1c(Br)c(Br)n(C(=O)Oc2ccccc2)c1Br | 128 to 129
Cn1c(=O)[nH]c2ncccc2c1=O | 272 to 274
Nc1cc(Oc2cc(Cl)cc(Cl)c2)nc(C(=O)O)c1Cl | 196
CCCN(CCC)C(=O)n1cnc(S(=O)(=O)CCC)n1 | 79 to 80
O=C(CCSCCC(=O)Nc1ccc(Nc2ccccc2)cc1)Nc1ccc(Nc2ccccc2)cc1 | 199 to 203
N=C(N)c1ccc(NC(=O)NC(=O)c2ccc(OCC(=O)O)cc2)cc1 | 285 to 288
c1ccc(Cn2nnc3ccc(Cn4ccnc4)cc32)cc1 | 85.4
CCC1(Cl)NN=C2C=Nc3cc(Cl)c(Cl)cc3N21 (stereo not given) | 198 to 201
Nc1c(Cl)cc(C(O)CNCCCCCCOCCCc2ccc([N+](=O)[O-])cn2)cc1Cl (stereo not given) | 60 to 61
O=C1CC2C1CC(O)C2Cl (stereo not given) | 69 to 71

Next, values leading:

melting point [°C] | Structure (SMILES)
92 to 93 | COC(=O)c1ccc(C#CC(O)c2ccc3c(c2)C(C)(C)CCC3(C)C)cc1O (stereo not given)
162 to 172 | COc1cc(OC)nc(NC(=O)NS(=O)(=O)c2c([N+](=O)[O-])ccc3c2CCC3)n1
151 to 152 | Cc1oc(-c2ccccc2)nc1COc1ccc(COc2nn(-c3ccccc3)cc2CC(=O)O)cc1
99 to 102 | CCOC(=O)c1nc2ccc(F)cc2n(CC)c1=O
174 to 177 | COc1cc(Nc2c([N+](=O)[O-])ccc(Cl)c2C(=O)O)cc(OC)c1
254 to 255 | CS(=O)(=O)c1cccc(NC(=O)c2cnn3ccc(-c4ccc(C(F)(F)F)cc4)nc23)c1
138 to 139 | O=C(O)CCc1c(Sc2ccccc2)c2cc(F)ccc2n1Cc1ccc(Cl)cc1
148 to 149 | CCOC(=O)c1cc2c(C)c(F)ccc2[nH]1
> 220 | O=C(O)c1ccccc1Nc1ccc(-c2ccc(Cl)c(Cl)c2)cc1
117 to 118 | Cc1c(-c2ccccc2F)[nH]c(N)c1C#N
205 to 207 | CC(C)c1ccc2c(c1)OC1(O)c3cccc(O)c3C(=O)C21O (stereo not given)
132 | CCC(Nc1ccc(Br)cc1)n1nnc2ccccc21 (stereo not given)
238 to 240 | CN1C(=O)CC(C(=O)Nc2nccs2)C(=O)c2ccc(Cl)cc21 (stereo not given)
105 to 107 | CCOC(=O)c1ncn(Cc2ccc(Cl)c(Cl)c2)c1C(=O)OCC
187 to 188 | Cc1ccc(-c2ccc(S(C)(=O)=O)cc2)n1-c1ccc(-c2ccsc2)cc1
230 to 231 | Cc1ccc(C(=O)c2ccncc2C(=O)O)cc1
162 to 164 | CC1(C)OC(c2ccc(S(C)(=O)=O)cc2)=C(c2ccc(F)c(Cl)c2)C1=O
> 250 | COc1ccc(C(=O)Nc2c(Cl)cncc2Cl)c2c1oc1ccc(Cl)cc12
191 | Cn1nc(-c2ccc(Cl)cc2)nc1-c1ccncc1
221 to 222 | O=C(c1cccc(Cl)c1)N1CCc2cc(S(=O)(=O)N3CCN(c4cccc(Cl)c4)CC3)ccc21
127 to 129 | O=CN(O)C(CCCO)CS(=O)(=O)c1ccccc1Oc1ccc(Cl)cc1 (stereo not given)
208 to 209 | O=C1NCCc2c(-c3ccc(C(F)(F)F)cc3)[nH]c3cccc1c23
59 | CCCOC(=O)n1cc2c(n1)NC(CCC)=C(C(=O)OCC)C2c1ccccc1Cl (stereo not given)
> 230 | CSc1nn2c(N(C)C)cc(C)nc2c1S(=O)(=O)c1ccc(C)cc1
212 to 214 | COc1cc(C(=O)NS(=O)(=O)c2ccccc2C)ccc1Cc1cccc2ccc(C(=O)NCC(C)C)cc12
248 to 250 | Cc1nc2ccc(NC(=O)COCc3ccccc3)cc2c(=O)n1C1CCC(=O)NC1=O (stereo not given)
282 to 284 | Cc1ccc(-c2n[nH]c(=O)c(-c3ccccc3)c2-c2ccc(C)cc2)cc1

melting point [°C] | Structure (SMILES)
180 | CS(=O)(=O)c1ccc(OC2SCC(O)C(O)C2O)cc1 (stereo not given)
240 to 241 | NS(=O)(=O)c1cc(C(=O)O)cc(NCCCC(=O)O)c1Oc1ccccc1
108 to 109 | CCOC(=O)CCc1c(OCCCCCCc2ccc(OC)cc2)ccc2c(=O)c3cc(C(=O)OC)ccc3oc12
204 to 206 | O=C1N(C(c2ccccc2)c2ccccc2)c2ccccc2C1(O)c1cc2c(cc1O)OCCC2 (stereo not given)
221 to 224 | CCOc1ccc2c(Nc3ccc(Cl)cc3F)c(C#N)cnc2c1
274 to 277 | NC(=O)c1ncn2c(-c3ccc(N4CCOCC4)cc3)ccnc12
171 to 173 | CCC1(O)CC2CC[C@]1(CS(=O)(=O)N1CCC3(C=Cc4ccccc43)CC1)C2(C)C (stereo not given in full)
209 to 210 | Cc1ccc(OC(C)C)c(-c2cc(=O)c3cc(C(=O)O)ccc3o2)c1
> 250 | CNCC1Cc2cc(-c3ccccc3)cc(-c3cccc(F)c3)c2O1 (stereo not given)
177 to 178 | Cc1nn(-c2ccccn2)c2ncc(C(=O)c3ccccc3)c(Cl)c12
261 | CC1SC(=O)NN=C1c1ccc2c(c1)C(=Nc1ccc(N(C)C)cc1)C(=O)N2 (stereo not given)
137 | O=C(O)c1ccc(Br)cc1Cc1ccccc1
166 to 168 | COc1ccc2cc(S(=O)(=O)Nc3cccc(Cl)c3C)cc(S(=O)(=O)Nc3cccc(Cl)c3C)c2c1
139 to 143 | CC(=O)Nc1ccc(S(=O)(=O)Nc2ccn(C3CC3)c(=O)n2)cc1
229 to 230 | O=C(Nc1ccccc1)c1cc(Br)ccc1O
219 to 220 | O=C(Nc1ccc(N2CCCC2)nc1)c1cc2nc(C(F)(F)F)ccc2n1Cc1cccc(F)c1
220 to 223 | Cc1[nH]cnc1/C=C1\CCc2sc3ccccc3c2C1=O
151 | O=C(c1ccc(C(F)(F)F)cc1S(=O)c1ccc(Cl)cc1)c1cnoc1C1CC1 (stereo not given)
240 | CCCOc1ccc(S(=O)(=O)N2CCN(C)CC2)cc1-c1cc2c(=O)n(C)c(=O)n(CCC)c2[nH]1
167 to 169 | Cn1c2ccccc2c2ccc3ccccc3c21
198 to 199 | Cn1c(=O)oc2cc3c(cc21)OCC31C(=O)N(Cc2ccc(C(F)(F)F)o2)c2ccccc21 (stereo not given)
276 to 278 | Cc1cc(C)c2c(n1)[nH]c(=O)c1ccccc12
305 to 308 | CC(C)c1nc(-c2ccc(-c3cnc4[nH]c(=O)n(CC5CCOCC5)c4n3)cc2)n[nH]1
171 to 173 | CC(C)COC(=O)Sc1ccc(-c2ccc(C(CCl)NC(=O)c3c(F)cccc3F)cc2)cc1 (racemic)
> 260 | N=C(N)c1ccc(-c2ccc(Nc3ccc(CCC(=O)O)cc3)nn2)cc1
153 | CCOc1ccc2c(S(=O)(=O)c3ccc(OCc4ccccc4)cc3)c(C(C)C)cn2c1
254 to 255 | O=C(O)c1ccc(C#Cc2ccc(O)c(C34CC5CC(CC(C5)C3)C4)c2)cc1
